According to ChEMBL document CHEMBL1136764, “N6-cyclopentyl-2-(3-phenylaminocarbonyltriazene-1-yl)adenosine (TCPA), a very selective agonist with high affinity for the human adenosine A1 receptor” (J Med Chem, 2003):

Key:
Adenosine receptor A2a [1] = target: T1, Adenosine receptor A2a (Homo sapiens, UniProt P29274)
Description: Tested for binding affinity towards human adenosine A2A receptor using [3H]ZM-241385 as radioligand

[2] = target: T2, Adenosine receptor A2b (Homo sapiens) (UniProt P29275); assay: In vitro binding affinity towards human adenosine A2B receptor by [3H]DPCPX displacement at 10 uM.
T2 sequence (whole entry): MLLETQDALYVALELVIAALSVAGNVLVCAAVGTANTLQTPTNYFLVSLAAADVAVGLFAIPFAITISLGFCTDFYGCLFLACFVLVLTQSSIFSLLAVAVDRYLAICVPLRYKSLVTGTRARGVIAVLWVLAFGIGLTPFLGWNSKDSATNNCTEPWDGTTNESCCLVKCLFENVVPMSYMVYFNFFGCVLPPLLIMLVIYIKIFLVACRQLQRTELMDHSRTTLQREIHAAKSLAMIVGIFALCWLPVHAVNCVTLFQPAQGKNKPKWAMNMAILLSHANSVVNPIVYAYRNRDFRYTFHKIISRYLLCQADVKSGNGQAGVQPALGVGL

Adenosine receptor A1 [3] = target: T3, Adenosine receptor A1 (Homo sapiens, UniProt P30542)
T3 sequence (P30542 whole entry): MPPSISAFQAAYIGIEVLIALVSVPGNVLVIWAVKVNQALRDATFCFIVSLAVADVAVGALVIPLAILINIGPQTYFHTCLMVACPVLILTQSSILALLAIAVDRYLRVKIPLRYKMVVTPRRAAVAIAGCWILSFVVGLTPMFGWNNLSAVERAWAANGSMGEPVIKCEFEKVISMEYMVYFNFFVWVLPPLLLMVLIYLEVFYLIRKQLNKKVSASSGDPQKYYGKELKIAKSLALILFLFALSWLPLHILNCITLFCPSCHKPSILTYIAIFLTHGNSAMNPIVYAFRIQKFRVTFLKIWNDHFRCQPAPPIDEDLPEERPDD
Description: In vitro binding affinity towards human adenosine A1 receptor by [3H]DPCPX displacement.

Adenosine receptor A3 [4] = target: T4, Adenosine receptor A3 (Homo sapiens, UniProt P0DMS8); assay: Inhibition of [125 I]-IABMECA binding to human adenosine A3 receptor
T4 sequence (P0DMS8 whole entry): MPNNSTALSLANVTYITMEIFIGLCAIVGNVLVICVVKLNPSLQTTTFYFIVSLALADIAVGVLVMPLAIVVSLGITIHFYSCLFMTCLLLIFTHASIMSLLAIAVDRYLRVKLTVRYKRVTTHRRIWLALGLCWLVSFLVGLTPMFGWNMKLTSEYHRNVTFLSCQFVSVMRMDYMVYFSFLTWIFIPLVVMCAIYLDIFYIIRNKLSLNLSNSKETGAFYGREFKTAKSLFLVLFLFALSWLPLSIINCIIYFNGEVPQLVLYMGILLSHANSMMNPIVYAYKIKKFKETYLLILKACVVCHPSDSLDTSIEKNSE

Adenosine receptor A3 [5] = target: T4, Adenosine receptor A3; assay: Binding affinity for human Adenosine A3 receptor using [125 I]-IABMECA
Adenosine receptor A2a [6] = target: T1, Adenosine receptor A2a; assay: Binding affinity for human Adenosine A2A receptor using [3H]ZM-241385
[7] = target: T5, Adenosine receptor A1 (Homo sapiens) (UniProt P30542); assay: Percent displacement of [3H]DPCPX from human adenosine A1 receptor at 10 uM
T5 sequence (whole entry): T3 sequence (P30542 whole entry)

[8] = target: T2, Adenosine receptor A2b (Homo sapiens); assay: Binding affinity for human adenosine A2B receptor using [3H]DPCPX at 10 uM as percent displacement
[9] = target: T6, Adenosine receptor A3 (Homo sapiens) (UniProt P0DMS8); assay: Binding affinity for human adenosine A3 receptor using [125 I]-IABMECA; insoluble
T6 sequence (whole entry): T4 sequence (P0DMS8 whole entry)

[10] = target: T2, Adenosine receptor A2b (Homo sapiens); assay: Percent displacement of [3H]DPCPX from human adenosine A2B receptor at 10 uM; insoluble
[11] = target: T5, Adenosine receptor A1 (Homo sapiens); assay: Binding affinity for human adenosine A1 receptor using [3H]DPCPX; insoluble
Adenosine receptor A2a [12] = target: T1, Adenosine receptor A2a; assay: Binding affinity for human adenosine A2A receptor using [3H]ZM-241385; insoluble
Adenosine receptor A2a [13] = target: T1, Adenosine receptor A2a; assay: Percent displacement of [3H]ZM-241,385 from human adenosine A2A receptor at 10 uM
[14] = target: Adenosine receptors; A1 & A3 (Homo sapiens) (UniProt P30542+P0DMS8); assay: Selectivity for adenosine A1 and A3 receptors; assay type: protein assay
[15] = target: T5, Adenosine receptor A1 (Homo sapiens); assay: Relative potency for human adenosine A1 receptor (Ki value)
Adenosine receptor A1 [16] = target: T3, Adenosine receptor A1; assay: Inhibition of cAMP formation in CHO cells expressing human adenosine A1 receptor; assay type: cell-based
[17] = target: T6, Adenosine receptor A3 (Homo sapiens); assay: Relative potency for human adenosine A3 receptor (Ki value)

T1 sequence (P29274 whole entry): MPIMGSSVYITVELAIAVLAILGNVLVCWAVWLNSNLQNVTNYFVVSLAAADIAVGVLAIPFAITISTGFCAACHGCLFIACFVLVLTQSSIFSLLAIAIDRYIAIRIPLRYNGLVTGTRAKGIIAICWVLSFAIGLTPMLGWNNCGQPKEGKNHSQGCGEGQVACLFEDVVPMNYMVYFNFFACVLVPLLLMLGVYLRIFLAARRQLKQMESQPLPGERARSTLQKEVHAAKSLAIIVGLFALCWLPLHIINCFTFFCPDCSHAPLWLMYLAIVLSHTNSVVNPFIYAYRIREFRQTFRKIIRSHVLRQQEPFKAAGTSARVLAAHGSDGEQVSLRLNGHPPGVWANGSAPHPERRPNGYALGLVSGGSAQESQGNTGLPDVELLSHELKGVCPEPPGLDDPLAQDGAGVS

SMILES	Ki (Adenosine receptor A2a [1]) [nM]	Displacement [2] [%]	Ki (Adenosine receptor A1 [3]) [nM]	Ki (Adenosine receptor A3 [4]) [nM]	Ki (Adenosine receptor A3 [5]) [nM]	Ki (Adenosine receptor A2a [6]) [nM]	other results
Nc1nc(/N=N/NC(=O)Nc2ccccc2Cl)nc2c1ncn2[C@@H]1O[C@H](CO)[C@@H](O)[C@H]1O	45	30	23	179			
O=C(N/N=N/c1nc(Nc2ccccc2)c2ncn([C@@H]3O[C@H](CO)[C@@H](O)[C@H]3O)c2n1)Nc1ccccc1	24.3	9	430	90			
Nc1nc(/N=N/NC(=O)Nc2nccs2)nc2c1ncn2[C@@H]1O[C@H](CO)[C@@H](O)[C@H]1O	25	79	24	610			
Nc1nc(/N=N/NC(=O)NC2CCCCC2)nc2c1ncn2[C@@H]1O[C@H](CO)[C@@H](O)[C@H]1O		6	5.8		63	25	
O=C(N/N=N/c1nc(NCC(c2ccccc2)c2ccccc2)c2ncn([C@@H]3O[C@H](CO)[C@@H](O)[C@H]3O)c2n1)Nc1ccccc1	980	10	3.1	140			
Nc1nc(NN=NC(=O)Oc2ccccc2)nc2c1ncn2C1O[C@H](CO)[C@@H](O)[C@H]1O (some centres undefined)				577			
Nc1nc(/N=N/NC(=O)Nc2cccc(C(F)(F)F)c2)nc2c1ncn2C1O[C@H](CO)[C@@H](O)[C@H]1O (some centres undefined)							Other [9]: Insoluble; Other [10]: Insoluble; Other [11]: Insoluble; Other (Adenosine receptor A2a [12]): Insoluble
Nc1nc(/N=N/NC(=O)NCc2ccccc2)nc2c1ncn2[C@@H]1O[C@H](CO)[C@@H](O)[C@H]1O	25	9	42	147			
COc1ccc(NC(=O)/N=N/Nc2nc(N)c3ncn([C@@H]4O[C@H](CO)[C@@H](O)[C@H]4O)c3n2)cc1	25	15	20	73			
O=C(N/N=N/c1nc(NC2CCCC2)c2ncn([C@@H]3O[C@H](CO)[C@@H](O)[C@H]3O)c2n1)Nc1ccccc1	210	10	2.8	600			Selectivity [14]: 214; Relative potency [15]: 1; IC50 (Adenosine receptor A1 [16]): 1.5 nM; Relative potency [17]: 1
Nc1nc(/N=N/NC(=O)Nc2ccccc2)nc2c1ncn2[C@@H]1O[C@H](CO)[C@@H](O)[C@H]1O		54	6.1		110	25	

Further lines, with some results ahead:

Ki (Adenosine receptor A2a [1]) [nM]	Displacement [2] [%]	Ki (Adenosine receptor A1 [3]) [nM]	Ki (Adenosine receptor A3 [4]) [nM]	Ki (Adenosine receptor A3 [5]) [nM]	Ki (Adenosine receptor A2a [6]) [nM]	SMILES	other results
		15		59		Nc1nc(N=NNC(=O)Nc2cccc(Cl)c2)nc2c1ncn2C1O[C@H](CO)[C@@H](O)[C@H]1O (some centres undefined)	
	9	140		209	88	NC(=O)/N=N/Nc1nc(N)c2ncn([C@@H]3O[C@H](CO)[C@@H](O)[C@H]3O)c2n1	
				580	720	Nc1nc(N=O)nc2c1ncn2[C@@H]1O[C@H](CO)[C@@H](O)[C@H]1O	Displacement [7]: 40%; Displacement [8]: 14%
125	18	20	81			COc1ccccc1NC(=O)/N=N/Nc1nc(N)c2ncn([C@@H]3O[C@H](CO)[C@@H](O)[C@H]3O)c2n1	
	10	204	175			NC(=O)/N=N/Nc1nc(Nc2ccccc2)c2ncn([C@@H]3O[C@H](CO)[C@@H](O)[C@H]3O)c2n1	Displacement (Adenosine receptor A2a [13]): 17.7%
		1900		190	1000	Nc1nc(/N=N/NC(=O)c2ccccc2)nc2c1ncn2[C@@H]1O[C@H](CO)[C@@H](O)[C@H]1O	Displacement [8]: 8%
				110	180	Nc1nc(/N=N/c2ccccc2)nc2c1ncn2[C@@H]1O[C@H](CO)[C@@H](O)[C@H]1O	Displacement [8]: 11%
	64					Nc1nc(/N=N/NC(=O)Nc2cccc(Cl)c2)nc2c1ncn2C1O[C@H](CO)[C@@H](O)[C@H]1O (some centres undefined)	Displacement (Adenosine receptor A2a [13]): 29.9%
639						OC[C@H]1O[C@@H](n2cnc3c(NC4CCCC4)nc(Cl)nc32)[C@H](O)[C@@H]1O	
	15	45		113	19	CCNC(=O)/N=N/Nc1nc(N)c2ncn([C@@H]3O[C@H](CO)[C@@H](O)[C@H]3O)c2n1	
	21	15		39		Nc1nc(/N=N/NC(=O)Nc2ccc(Cl)cc2)nc2c1ncn2[C@@H]1O[C@H](CO)[C@@H](O)[C@H]1O	Displacement (Adenosine receptor A2a [13]): 4.4%
	6					Nc1nc(/N=N/NC(=O)Oc2ccccc2)nc2c1ncn2C1O[C@H](CO)[C@@H](O)[C@H]1O (some centres undefined)	Displacement [7]: 43%; Displacement (Adenosine receptor A2a [13]): 38.9%
